Measured values published in article PMC7587356, “High-Throughput Screening for Inhibitors of the SARS-CoV-2 Protease Using a FRET-Biosensor” (Molecules, 2020).
Structures can show the parent of a compound that is named as a salt. Where two headings read alike, the source gives them in different places.

Biological target: SARS-CoV-2 3CLpro (Severe acute respiratory syndrome coronavirus 2, UniProt P0DTD1)
Assay: biochemical
Type: biochemical
Parameters: Replicate_1 / Replicate_2 / mean / mean (LOPAC_screen_w_protease): unit not given here
Conditions: for inhibition at 5 µM: 4 h
[1] = sheet LOPAC_screen_w_protease, LOPAC1280 primary screen with protease, 5 µM compound, mean of the two replicates
[2] = sheet LOPAC_screen_w_protease, LOPAC1280 primary screen with protease, 5 µM compound, replicate 1
[3] = sheet LOPAC_screen_w_protease, LOPAC1280 primary screen with protease, 5 µM compound, replicate 2
[4] = LOPAC1280 primary screen with protease, 5 µM compound, mean of the two replicates
[5] = LOPAC1280 primary screen with protease, 5 µM compound, replicate 1
[6] = LOPAC1280 primary screen with protease, 5 µM compound, replicate 2
[7] = sheet LOPAC_screen_w_protease, primary screen of LOPAC1280 at 5 µM with protease, mean of the two replicates, read-out: mean
[8] = sheet LOPAC_screen_w_protease, primary screen of LOPAC1280 at 5 µM with protease, replicate 1, read-out: Replicate_1
[9] = sheet LOPAC_screen_w_protease, primary screen of LOPAC1280 at 5 µM with protease, replicate 2, read-out: Replicate_2
[10] = sheet LOPAC_screen_w_protease, LOPAC1280 at 5 µM, mean of two replicates, read-out: mean
[11] = sheet LOPAC_screen_w_protease, LOPAC1280 at 5 µM, replicate 1, read-out: Replicate_1
[12] = sheet LOPAC_screen_w_protease, LOPAC1280 at 5 µM, replicate 2, read-out: Replicate_2
[13] = sheet LOPAC_screen_w_protease, primary screen with protease, mean of two replicates, read-out: mean
[14] = sheet LOPAC_screen_w_protease, primary screen with protease, replicate 1, read-out: Replicate_1
[15] = sheet LOPAC_screen_w_protease, primary screen with protease, replicate 2, read-out: Replicate_2

Oligomycin A showed a mean [1] of 6.143, a Replicate_1 [2] of 3.7549 and a Replicate_2 [3] of 8.531.

In the case of N.N.N.Nc1ncnc2c1ncn2C1OC(COP(=O)(O)OP(=O)(O)OP(=O)(O)OP(=O)(O)OC[C@H]2O[C@@H](n3cnc4c(N)ncnc43)C(O)C2O)[C@@H](O)C1O (stereo in doubt), the “mean (LOPAC_screen_w_protease)” value [4] is reported as 2.093, the “Replicate_1 (LOPAC_screen_w_protease)” value [5] is reported as 3.71 and the “Replicate_2 (LOPAC_screen_w_protease)” value [6] is reported as 0.4753.

Compound CC(=O)OCC1=C(C(=O)O)N2C(=O)[C@@H](NC(=O)CSc3ccncc3)[C@H]2SC1 [Cephapirin sodium] has an inhibition at 5 µM [7] of 4.07%, an inhibition at 5 µM [8] of 3.36% and an inhibition at 5 µM [9] of 4.79%.

For Br.C=CCN1CCc2cccc3c2[C@H]1Cc1ccc(O)c(O)c1-3 [R(-)-N-Allylnorapomorphine hydrobromide], the “mean (LOPAC screen with protease)” value (sheet LOPAC_screen_w_protease, primary screen at 5 µM, mean of two replicates) was 97.2039, the “Replicate_1 (LOPAC screen with protease)” value (sheet LOPAC_screen_w_protease, primary screen at 5 µM, replicate 1) was 99.2109 and the “Replicate_2 (LOPAC screen with protease)” value (sheet LOPAC_screen_w_protease, primary screen at 5 µM, replicate 2) was 95.1969.

NS(=O)(=O)c1cc2c(cc1Cl)N=CNS2(=O)=O [Chlorothiazide] showed an inhibition at 5 µM [10] of 0.892%, an inhibition at 5 µM [11] of 1.61% and an inhibition at 5 µM [12] of 0.17%.

C[C@](N)(Cc1ccc(O)cc1)C(=O)O [L-alpha-Methyl-p-tyrosine] gave a mean [1] of 4.979, a Replicate_1 [2] of 5.136 and a Replicate_2 [3] of 4.822.

With COc1ccc2c(c1OC)C(=O)O[C@@H]2[C@H]1c2c(cc3c(c2OC)OCO3)CCN1C.Cl [Noscapine hydrchloride] the “mean (LOPAC_screen_w_protease)” value [4] was 1.752 and the “Replicate_1 (LOPAC_screen_w_protease)” value [5] was 0.9869.

Work on NC(N)=NCCCCN=C(N)N [Arcaine sulfate] yielded an inhibition at 5 µM (sheet LOPAC_screen_w_protease, LOPAC1280 primary screen at 5 µM, with protease, mean of the two replicates, read-out: mean) of 0.608%, an inhibition at 5 µM (sheet LOPAC_screen_w_protease, LOPAC1280 primary screen at 5 µM, with protease, replicate 1, read-out: Replicate_1) of 1.59% and an inhibition at 5 µM (sheet LOPAC_screen_w_protease, LOPAC1280 primary screen at 5 µM, with protease, replicate 2, read-out: Replicate_2) of -0.37%.

For Cc1ccc(=O)n(-c2ccccc2)c1 [Pirfenidone], the inhibition at 5 µM [7] was 4.02%, the inhibition at 5 µM [8] was 2.71% and the inhibition at 5 µM [9] was 5.33%.

With c1ccc(C2CC2)c(OCC2=NCCN2)c1 [Cirazoline hydrochloride] the inhibition at 5 µM (LOPAC1280 primary screen with protease, 5 µM compound, replicate 1, read-out: Replicate_1 (LOPAC_screen_w_protease)) was 2.66%, the inhibition at 5 µM (LOPAC1280 primary screen with protease, 5 µM compound, replicate 2, read-out: Replicate_2 (LOPAC_screen_w_protease)) was 1% and the “mean (LOPAC_screen_w_protease)” value [4] was 1.832.

For NC(=O)c1cccc(N)c1 [3-aminobenzamide], the inhibition at 5 µM [10] was 1.28%, the inhibition at 5 µM [11] was 1.05% and the inhibition at 5 µM [12] was 1.51%.

With CC(=O)CCCCn1c(=O)c2c(ncn2C)n(C)c1=O [Pentoxifylline] the inhibition at 5 µM (sheet LOPAC_screen_w_protease, primary screen with protease, compound at 5 µM, mean of two replicates, read-out: mean) was 2.98%, the inhibition at 5 µM (sheet LOPAC_screen_w_protease, primary screen with protease, compound at 5 µM, replicate 1, read-out: Replicate_1) was 2.78% and the inhibition at 5 µM (sheet LOPAC_screen_w_protease, primary screen with protease, compound at 5 µM, replicate 2, read-out: Replicate_2) was 3.18%.

With CCCCOc1cc(CC2CNC(=O)N2)ccc1OC (centres unmarked) [Ro 20-1724] the “mean (LOPAC_screen_w_protease)” value [4] was 1.901, the “Replicate_1 (LOPAC_screen_w_protease)” value [5] was 0.9131 and the “Replicate_2 (LOPAC_screen_w_protease)” value [6] was 2.888.

With CS(=O)(=O)Nc1ccc([N+](=O)[O-])cc1Oc1ccccc1 [Nimesulide] the inhibition at 5 µM (read-out: Replicate_1) was 4.73%, the inhibition at 5 µM (read-out: Replicate_2) was 4.45% and the inhibition at 5 µM (read-out: mean) was 4.59%.

CC[N+](C)(C)c1cccc(O)c1 [Edrophonium chloride] gave an inhibition at 5 µM [13] of 2.25%, an inhibition at 5 µM [14] of 5.19% and an inhibition at 5 µM [15] of -0.704%.

With CC(C)COC(=O)OCN1C(=O)CN(CCN2CC(=O)N(COC(=O)OCC(C)C)C(=O)C2)CC1=O [Sobuzoxane] the inhibition at 5 µM [13] was 2.23%, the inhibition at 5 µM [14] was 2.79% and the inhibition at 5 µM [15] was 1.66%.

With NC(=O)N1c2ccccc2C=Cc2ccccc21 [Carbamazepine] the “mean (LOPAC_screen_w_protease)” value was 1.395, the inhibition at 5 µM (read-out: Replicate_1 (LOPAC_screen_w_protease)) was 1.4% and the inhibition at 5 µM (read-out: Replicate_2 (LOPAC_screen_w_protease)) was 1.39%.

Cn1c(=O)c2c(ncn2C)n(C)c1=O [Caffeine] showed an inhibition at 5 µM [13] of 2.35%, an inhibition at 5 µM [14] of 1.98% and an inhibition at 5 µM [15] of 2.71%.
